Test results published in patent US9512125B2, “Substituted pyrazolo[3.4-D] pyrimidines as anti-inflammatory agents” (THE REGENTS OF THE UNIVERSITY OF CALIFORNIA, priority 2004, dated 2016).

System: HUVEC with or without PBMC (3C, 4H, SAG and LPS systems)
Assay: BioMAP inflammation model systems (3C, 4H, SAG, LPS), cell-based ELISA profiling
Set-up: species or system human
Conditions: 4 systems (3C, 4H, SAG, LPS); concentration of 5 micromolar; 24 h stimulation

Row | SMILES | Activity
1 | Cn1nc(Cc2ccccc2Cl)c2c(N)ncnc21 [Compound 61] | +
2 | CC(C)(C)n1nc(Cc2cc(F)ccc2F)c2c(N)ncnc21 [Compound 79] | active
3 | Cc1cc(C)cc(Cc2nn(C(C)(C)C)c3ncnc(N)c23)c1 [Compound 3] | +
4 | CC(C)(C)n1nc(CCc2ccccc2)c2c(N)ncnc21 [Compound 29] | +
5 | CC(C)(C)n1nc(Cc2ccc(Cl)cc2)c2c(N)ncnc21 [Compound 23] | +
6 | COc1ccccc1Cc1nn(C(C)(C)C)c2ncnc(N)c12 [Compound 28] | +
7 | CC(C)(C)n1nc(C2CCCC2)c2c(N)ncnc21 [Compound 38] | +
8 | CC(C)(C)n1nc(-c2cccc(Oc3ccccc3)c2)c2c(N)ncnc21 [Compound 22] | active
9 | CN(C)c1ncnc2c1c(Cc1ccccc1Cl)nn2C(C)(C)C [Compound 80] | active
10 | CCOCCn1nc(Cc2ccccc2Cl)c2c(N)ncnc21 [Compound 70] | +
11 | CCC(C)CCn1nc(Cc2ccccc2Cl)c2c(N)ncnc21 (centres unmarked) [Compound 85] | active
12 | Cc1ccc(Cc2nn(C(C)(C)C)c3ncnc(N)c23)cc1C [Compound 5] | +
13 | CC(C)n1cc(-c2cccc(O)c2)c2c(NCc3ccccc3)ncnc21 [Compound 53] | active
14 | CC(C)(C)n1nc(-c2ccccc2OCc2ccccc2)c2c(N)ncnc21 [Compound 40] | +
15 | CC(C)(C)n1nc(C2(c3ccccc3Cl)CC2)c2c(N)ncnc21 [Compound 77] | active
16 | CNc1ncnc2c1c(-c1cccc(N)c1)nn2C(C)C [Compound 56] | +
17 | Nc1ncnc2c1c(-c1ccccc1)nn2-c1ccccc1 [Compound 49] | +
18 | Nc1ncnc2c1c(Cc1ccccc1Cl)nn2CCCCO [Compound 74] | +
19 | Clc1ncnc2c1c(-c1ccccc1)nn2Cc1ccccc1 [Compound 57] | +

Row | SMILES | Activity
20 | CC(C)(C)n1nc(Cc2ccc(O)cc2)c2c(N)ncnc21 [Compound 25] | +
21 | CCCCn1nc(Cc2ccccc2Cl)c2c(N)ncnc21 [Compound 89] | active
22 | COc1ccc(Cc2nn(C(C)(C)C)c3ncnc(N)c23)cc1 [Compound 27] | +
23 | Cc1ccc(Cc2nn(C(C)(C)C)c3ncnc(N)c23)cc1 [Compound 33] | +
24 | CC(c1ccccc1)c1nn(C(C)(C)C)c2ncnc(N)c12 (centres unmarked) [Compound 34] | +
25 | CC(C)Cc1n[nH]c2ncnc(N)c12 [Compound 44] | +
26 | CC(C)(C)n1nc(Cc2ccc(Cl)cc2Cl)c2c(N)ncnc21 [Compound 68] | +
27 | CC(C)(C)n1nc(-c2cccc(OCc3ccccc3)c2)c2c(N)ncnc21 [Compound 21] | +
28 | CC(C)(C)n1nc(-c2cccc(OCc3c(Cl)cccc3Cl)c2)c2c(N)ncnc21 [Compound 20] | +
29 | CC(C)(C)n1nc(Cc2ccc(F)cc2F)c2c(N)ncnc21 [Compound 78] | active
30 | Cn1nc(Cc2ccccc2Br)c2c(N)ncnc21 [Compound 58] | +
31 | CC(C)(C)n1nc(-c2ccc([N+](=O)[O-])cc2)c2c(N)ncnc21 [Compound 18] | +
32 | CCCn1nc(Cc2ccccc2Cl)c2c(N)ncnc21 [Compound 83] | active
33 | Nc1ncnc2c1c(Cc1ccccc1Cl)nn2C1CCC(O)CC1 (centres unmarked) [Compound 75] | +
34 | COCCn1nc(-c2ccccc2)c2c(N)ncnc21 [Compound 51] | +
35 | Cc1sccc1Cc1nn(C(C)(C)C)c2ncnc(N)c12 [Compound 67] | active
36 | CC(C)(C)n1nc(Cc2cccc(O)c2)c2c(N)ncnc21 [Compound 24] | +
37 | COC(=O)Cn1nc(Cc2cccc3ccccc23)c2c(N)ncnc21 [Compound 42] | +
38 | CC(C)(C)n1nc(Cc2ccc(Cl)c(Cl)c2)c2c(N)ncnc21 [Compound 4] | +
